Article PMC10054465, “Design, Synthesis, and Antiviral Activities of New Benzotriazole-Based Derivatives” (Pharmaceuticals, 2023)
“Also recorded” adds a separate entry of the source. Read-outs that look alike come from different tables or passages of the source.

What was measured:
[1] = Cytotoxicity in mock-infected Vero-76 monolayers; conditions: African green monkey (Cercopithecus aethiops)
VSV = assay: microbe, parasite or virus in culture; format: cell-based; conditions: Vesicular stomatitis virus, Vero 76, read-out: VSV EC50
RSV = assay: microbe, parasite or virus in culture; format: cell-based; conditions: human respiratory syncytial virus, Vero 76, read-out: RSV EC50
CVB5 [2] = assay: microbe, parasite or virus in culture; format: cell-based, human enterovirus B (coxsackievirus B5); conditions: Enterovirus B, CVB5, Vero 76, read-out: CVB5 EC50
[3] = Cytotoxicity in mock-infected MDBK cells (MTT); conditions: cattle (Bos taurus), mock-infected
[4] = Cytotoxicity in mock-infected BHK-21 monolayers (MTT); conditions: Syrian hamster (Mesocricetus auratus)
Sb-1 = assay: microbe, parasite or virus in culture; format: cell-based, human enterovirus C (poliovirus type-1); conditions: Enterovirus C, Vero 76, read-out: Sb-1 EC50
HSV-1 = assay: microbe, parasite or virus in culture; format: cell-based, human herpesvirus 1; conditions: Human alphaherpesvirus 1, Vero 76, read-out: HSV-1 EC50
VV = assay: microbe, parasite or virus in culture; format: cell-based; conditions: Orthopoxvirus vaccinia, Vero 76, read-out: VV EC50
BVDV = assay: microbe, parasite or virus in culture; format: cell-based; conditions: Bovine viral diarrhea virus isolates and strains, MDBK, read-out: BVDV EC50
YFV = assay: microbe, parasite or virus in culture; format: cell-based; conditions: Yellow fever virus, BHK-21, read-out: YFV EC50
Reo-1 = assay: microbe, parasite or virus in culture; format: cell-based, Reovirus type-1; conditions: Reovirus sp., BHK-21, read-out: Reo-1 EC50
CVB5 [5] = assay: Time of addition assay; format: cell-based, human enterovirus B (coxsackievirus B5); conditions: 20 µM
CVB5 [6] = assay: Cell pre-treatment assay (viral yield by plaque assay); format: cell-based, human enterovirus B (coxsackievirus B5); conditions: Vero-76 pre-treated 2 h with 20 µM, then CVB5; not treated control 3 × 10^5 PFU/mL
CVB5 virions = assay: Virucidal activity assay; format: cell-based, human enterovirus B (coxsackievirus B5); conditions: 20 µM, 4 °C or 37 °C
CVB = conditions: cited from earlier work
[7] = Vero-76 cell monolayers, mock-infected
[8] = BHK-21 cell monolayers, mock-infected
[9] = African green monkey (Cercopithecus aethiops)

| Compound | CC50 [1, 7] [µM] | EC50 (VSV) [µM] | EC50 (RSV) [µM] | EC50 (CVB5 [2]) [µM] | CC50 [3] [µM] | CC50 [4, 8] [µM] | melting point [°C] | EC50 (Sb-1) [µM] | EC50 (HSV-1) [µM] | EC50 (VV) [µM] | EC50 (BVDV) [µM] | EC50 (YFV) [µM] | EC50 (Reo-1) [µM] | also measured |
| --- | --- | --- | --- | --- | --- | --- | --- | --- | --- | --- | --- | --- | --- | --- |
| Nc1cccc(Cn2nnc3cc(Cl)c(Cl)cc32)c1 [6a] | > 100 | > 100 | > 100 | 52 ± 3.6 | > 100 | 57 | 161 to 162 | > 100 | > 100 | 62.5 ± 16.2 | > 100 |  |  |  |
| O=c1cnn([C@@H]2O[C@H](CO)[C@@H](O)[C@H]2O)c(=O)[nH]1 [6az-ur, 6-azauridine, reference compound] | 9.3 ± 1.6 |  | 1.1 ± 0.4 |  |  | > 100 |  |  |  |  |  | 46 ± 2.5 |  |  |
| Cc1cc2nn(Cc3ccc(N)cc3)nc2cc1C [11b] | > 100 | > 100 | > 100 | 6 | > 100 | > 100 | 169 to 171 | > 100 | > 100 | > 100 | > 100 | > 100 | > 100 |  |
| Nc1ccc(Cn2nc3cc(F)c(F)cc3n2)cc1 [11d] | > 100 | > 100 | > 100 | 7.6 ± 1.9 | > 100 | > 100 | 149 to 150 | > 100 | > 100 | > 100 | > 100 | > 100 | > 100 |  |
| CC(C)(C)C(=O)Nc1ccc(Cn2nnc3c(F)cccc32)cc1 [18e, N-(4-((4-fluoro-1H-benzo[d][1,2,3]triazol-1-yl)methyl)phenyl)pivalamide] | > 100 | > 100 | > 9 | 12.4 ± 0.6 | > 100 | > 100 |  | > 100 | 52 ± 9.2 | > 100 | > 100 | > 100 | > 100 | CC50 ([1]; Vero-76 cells): 9 µM; antiviral effect, compound added during the infection period (in words) (CVB5 [5]; Vero-76, CVB5 m.o.i. 1): antiviral effect was kept; titer reduction, compound added during subsequent steps of the replication cycle (in words) (CVB5 [5]; Vero-76, CVB5 m.o.i. 1, post infection): No titer reduction; viral load after cell pre-treatment (CVB5 [6]): 7× 10^4 PFU/mL; virucidal effect on CVB5 titer (in words) (CVB5 virions): no virucidal activity; also recorded: no difference between the titers; TEER values versus control (in words) (Caco-2 cell monolayers): did not significantly differ from control values; % Late apoptotic cells (Vero-76 cells): 8.3 ± 0.34%; % Live cells (Vero-76 cells): 72.87 ± 1.21%; % Necrotic cells (Vero-76 cells): 12.44 ± 2.35%; % Late apoptotic cells (Vero-76 cells; [9]): 1.03 ± 0.34%; % Live cells (Vero-76 cells; [9]): 94.45 ± 2.55%; % Necrotic cells (Vero-76 cells; [9]): 4.12 ± 2.3% |
| COc1cc(C(=O)Nc2ccc(Cn3nnc4c(F)cccc43)cc2)cc(OC)c1OC [21e] | > 100 | > 100 | 20 ± 2 | > 100 | 72 | 60 | 177 to 179 | > 100 | > 100 | > 100 |  |  |  |  |
| Cc1cc2nn(Cc3cccc(NC(=O)c4ccc(F)cc4)c3)nc2cc1C [25b] | > 100 | > 100 | > 100 | 47 ± 2.2 | > 100 | > 100 | 211 to 212 | > 100 | > 100 | > 100 | > 100 | > 100 | > 100 |  |
| CCCCNC(=O)Nc1cccc(Cn2nc3cc(C)c(C)cc3n2)c1 [32b] | > 100 | > 100 | > 100 | > 100 | > 100 | > 100 | 288 to 289 | 85 | > 100 | > 100 |  | > 100 | > 100 |  |
| COc1cc(C(=O)Nc2cccc(Cn3nnc4cc(Cl)c(Cl)cc43)c2)cc(OC)c1OC [41a] | > 100 | > 100 | > 10.5 | 18.5 ± 2.1 | > 100 | > 100 | 142 to 144 | > 100 | > 100 | > 100 | > 100 | > 100 | > 7 | CC50 ([1]; Vero-76 cells): 10.5 µM; CC50 ([4]; BHK-21 cells): 7 µM |
| O=C(Nc1cccc(Cn2nnc3cc(Cl)c(Cl)cc32)c1)c1ccc(Cl)cc1 [43a, N-(3-((5,6-dichloro-1H-benzo[d][1,2,3]triazol-1-yl)methyl)phenyl)-4-chlorobenzamide] | > 100 | > 100 | > 9.2 | 9 ± 1.6 | > 100 | > 100 |  | > 100 | > 100 | > 100 | > 100 | > 100 | > 100 | CC50 ([1]; Vero-76 cells): 9.2 µM; TEER values versus control (in words) (Caco-2 cell monolayers): did not significantly differ from control values |
| CC(=O)Nc1ccc(Cn2nnc3ccccc32)cc1 [79c] | 72 | > 72 | > 9 | > 72 | 44 | 86 | 187 to 189 | > 72 | > 72 | > 72 | > 44 | > 86 | > 86 | CC50 ([1]; Vero-76 cells): 9 µM |
| CCCNC(=O)Nc1ccc(Cn2nnc3cc(C)c(C)cc32)cc1 [99b] | > 100 | > 100 | > 100 | 16 | > 100 | > 100 | 190 to 192 | > 100 | > 100 | > 100 | > 100 | > 100 | > 100 |  |
| Cc1cc2nnn(Cc3ccc(NC(=O)NC4CCCCC4)cc3)c2cc1C [100b] | > 100 | > 100 | > 100 | 50 | > 100 | > 100 | 216 to 218 | > 100 | > 100 |  | > 100 | > 100 | > 100 |  |
| O=C(CCC(=O)Nc1ccc(-n2nnc3cc(Cl)c(Cl)cc32)cc1)Nc1ccc(-n2nnc3cc(Cl)c(Cl)cc32)cc1 [A, N1,N4-bis(4-(5,6-dichloro-1H-benzo[d][1,2,3]triazol-1-yl)phenyl)succinamide] |  |  |  |  |  |  |  |  |  |  |  |  |  | activity against CVB (in words) (CVB): not active |
| O=C(CCC(=O)Nc1ccc(Cn2nnc3cc(Cl)c(Cl)cc32)cc1)Nc1ccc(Cn2nnc3cc(Cl)c(Cl)cc32)cc1 [B, N1,N4-bis(4-((5,6-dichloro-1H-benzo[d][1,2,3]triazol-1-yl)methyl)phenyl)succinamide] |  |  |  |  |  |  |  |  |  |  |  |  |  | EC50 (CVB): 23 µM |
| C[C@@]1(O)[C@H](O)[C@@H](CO)O[C@H]1n1ccc(N)nc1=O [NM107, 2’-C-methylcytidine, reference compound] |  |  |  |  |  | > 100 |  |  |  |  |  |  | 6 ± 2.1 |  |
